Patent US11414384B2, “P300/CBP hat inhibitors” (Constellation Pharmaceuticals, Inc., priority 2018, dated 2022)

Molecular target: p300 HAT domain (residues 1287-1666) (Homo sapiens (Human), UniProt Q09472)
Assay: p300 HAT SPA assay (scintillation proximity assay, acetylation of biotinylated H3(1-21) peptide)
Format: biochemical
Conditions: p300 HAT domain; average of at least 2 replicate titrations; read-out: P300 HAT SPA IC50
Protocol: In a typical experiment the p300 HAT inhibitory activity of the compounds described herein was determined in accordance with the following experimental method.
The expressed protein was purified by Ni2+ affinity, followed by anion exchange chromatography. Appropriate fractions were pooled and buffer exchanged into 20 mM Hepes pH 7.5, 150 mM NaCl, and 1 mM TCEP.
35 μL of the reaction volume was transferred to a 384-well streptavidin FlashPlate (PerkinElmer) using a Bravo liquid handler (Velocity 11) and incubated for 1.5 hr at RT. […] Data were analyzed in Genedata to determine inhibitor IC50 values.

p300 HAT domain (residues 1287-1666), sequence (Q09472 1287-1666): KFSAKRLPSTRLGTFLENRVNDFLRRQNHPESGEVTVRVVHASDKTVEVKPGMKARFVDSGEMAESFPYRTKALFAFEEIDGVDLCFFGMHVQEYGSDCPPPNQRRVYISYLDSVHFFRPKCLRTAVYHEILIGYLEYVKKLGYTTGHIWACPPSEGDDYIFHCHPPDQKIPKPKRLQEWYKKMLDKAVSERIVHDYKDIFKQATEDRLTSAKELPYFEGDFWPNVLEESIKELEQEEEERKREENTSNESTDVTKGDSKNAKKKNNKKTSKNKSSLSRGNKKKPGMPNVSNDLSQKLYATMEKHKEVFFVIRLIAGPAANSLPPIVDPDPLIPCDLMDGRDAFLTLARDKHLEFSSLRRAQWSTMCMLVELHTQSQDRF

IC50 [µM]	SMILES
0.266	Cn1cc(-c2ccc3c(C(=O)C(NCCc4ccc(C(N)=O)cc4Cl)c4ccccc4)c[nH]c3c2)cn1 (racemic) [143 racemic, 3-chloro-4-(2-((2-(6-(1-methyl-1H-pyrazol-4-yl)-1H-indol-3-yl)-2-oxo-1-phenylethyl)amino)ethyl)benzamide]
14.1	NS(=O)(=O)c1ccc(CCNC(C(=O)c2c[nH]c3cc(C(F)(F)F)ccc23)c2ccccc2)cc1 (single isomer, unassigned) [1 Isomer 1]
> 30	NS(=O)(=O)c1ccc(CCNC(C(=O)c2c[nH]c3cc(C(F)(F)F)ccc23)c2ccccc2)cc1 (single isomer, unassigned) [1 Isomer 2]
> 60	O=C(c1c[nH]c2ccccc12)C(NCCc1ccccc1Cl)c1ccccc1 (single isomer, unassigned) [3 Isomer 1]
6.39	O=C(c1c[nH]c2ccccc12)C(NCCc1ccccc1Cl)c1ccccc1 (single isomer, unassigned) [3 Isomer 2]
> 60	O=C(c1c[nH]c2ccccc12)C(NCCc1cccc(Cl)c1)c1ccccc1 (single isomer, unassigned) [4 Isomer 1]
4.4	O=C(c1c[nH]c2ccccc12)C(NCCc1cccc(Cl)c1)c1ccccc1 (single isomer, unassigned) [4 Isomer 2]
8.76	O=C(c1c[nH]c2ccccc12)C(NCCc1ccc(Cl)cc1)c1ccccc1 (single isomer, unassigned) [5 Isomer 1]
0.867	O=C(c1c[nH]c2ccccc12)C(NCCc1ccc(Cl)cc1)c1ccccc1 (single isomer, unassigned) [5 Isomer 2]
> 60	COc1ccccc1CCNC(C(=O)c1c[nH]c2ccccc12)c1ccccc1 (single isomer, unassigned) [6 Isomer 1]
7.35	COc1cccc(CCNC(C(=O)c2c[nH]c3ccccc23)c2ccccc2)c1 (single isomer, unassigned) [7 Isomer 1]
43.2	COc1ccc(CCNC(C(=O)c2c[nH]c3ccccc23)c2ccccc2)cc1 (single isomer, unassigned) [8 Isomer 1]
> 60	NS(=O)(=O)c1ccc(CCNC(C(=O)c2c[nH]c3c(Cl)cccc23)c2ccccc2)cc1 (single isomer, unassigned) [15 Isomer 1]
49.2	Cc1[nH]c2ccccc2c1C(=O)C(NCCc1ccc(S(N)(=O)=O)cc1)c1ccccc1 (single isomer, unassigned) [16 Isomer 1]
7.99	Cn1cc(C(=O)C(NCCc2ccc(S(N)(=O)=O)cc2)c2ccccc2)c2ccccc21 (single isomer, unassigned) [17 Isomer 1]
1.85	Cn1cc(C(=O)C(NCCc2ccc(S(N)(=O)=O)cc2)c2ccccc2)c2ccccc21 (single isomer, unassigned) [17 Isomer 2]
> 60	O=C(c1c[nH]c2ccccc12)C(NCCN1CCOCC1)c1ccccc1 (single isomer, unassigned) [18 Isomer 1]
> 60	O=C(c1c[nH]c2ccccc12)C(NCCN1CCOCC1)c1ccccc1 (single isomer, unassigned) [18 Isomer 2]
> 60	O=C(c1c[nH]c2ccccc12)C(NCCc1ccc(Cl)cc1Cl)c1ccccc1 (single isomer, unassigned) [19 Isomer 1]
> 60	O=C(c1c[nH]c2ccccc12)C(NCCc1ccc(Cl)c(Cl)c1)c1ccccc1 (single isomer, unassigned) [20 Isomer 1]
3.07	O=C(c1c[nH]c2ccccc12)C(NCCc1ccc(Cl)c(Cl)c1)c1ccccc1 (single isomer, unassigned) [20 Isomer 2]
32.8	O=C(c1c[nH]c2ccccc12)C(NCCc1ccc(C(F)(F)F)cc1)c1ccccc1 (single isomer, unassigned) [21 Isomer 2]
> 60	O=C(c1c[nH]c2ccccc12)C(NCCc1ccc(F)cc1)c1ccccc1 (single isomer, unassigned) [22 Isomer 1]
52.2	O=C(c1c[nH]c2ccccc12)C(NCCc1ccc(Cl)cc1)C1CC1 (single isomer, unassigned) [24 Isomer 1]
> 60	O=C(c1c[nH]c2ccccc12)C(NCCc1ccc(Cl)cc1)C1CC1 (single isomer, unassigned) [24 Isomer 2]
> 60	O=C(c1c[nH]c2ccccc12)C(NCCc1ccc(Cl)cc1)C1CCCC1 (single isomer, unassigned) [25 Isomer 1]
> 60	O=C(c1c[nH]c2ccccc12)C(NCCc1ccc(Cl)cc1)C1CCCC1 (single isomer, unassigned) [25 Isomer 2]

IC50 [µM]	SMILES
7.58	COc1ccc(CCNC(C(=O)c2c[nH]c3c(Cl)cccc23)c2ccccc2)cc1 (single isomer, unassigned) [28 Isomer 1]
1.37	COc1ccc(CCNC(C(=O)c2c[nH]c3c(Cl)cccc23)c2ccccc2)cc1 (single isomer, unassigned) [28 Isomer 2]
> 60	O=C(c1c[nH]c2ccccc12)C(NCCc1cn[nH]c1)c1ccccc1 (single isomer, unassigned) [34 Isomer 1]
24.7	O=C(c1c[nH]c2ccccc12)C(NCCc1cn[nH]c1)c1ccccc1 (single isomer, unassigned) [34 Isomer 2]
39.8	Cn1cc(CCNC(C(=O)c2c[nH]c3ccccc23)c2ccccc2)cn1 (single isomer, unassigned) [35 Isomer 1]
43.5	Cn1cc(CCNC(C(=O)c2c[nH]c3ccccc23)c2ccccc2)cn1 (single isomer, unassigned) [35 Isomer 2]
> 60	O=C(c1c[nH]c2ccccc12)C(NCCn1ccnc1)c1ccccc1 (single isomer, unassigned) [36 Isomer 1]
> 60	O=C(c1c[nH]c2ccccc12)C(NCCn1ccnc1)c1ccccc1 (single isomer, unassigned) [36 Isomer 2]
> 60	O=C(c1c[nH]c2ccccc12)C(NCCn1cnc2ccccc21)c1ccccc1 (single isomer, unassigned) [37 Isomer 1]
> 60	O=C(c1c[nH]c2ccccc12)C(NCCn1cnc2ccccc21)c1ccccc1 (single isomer, unassigned) [37 Isomer 2]
19	Cc1ccc(CCNC(C(=O)c2c[nH]c3ccccc23)c2ccccc2)cc1 (single isomer, unassigned) [38 Isomer 1]
> 60	CN(C)c1ccc(CCNC(C(=O)c2c[nH]c3ccccc23)c2ccccc2)cc1 (single isomer, unassigned) [39 Isomer 1]
> 60	O=C(c1c[nH]c2ccccc12)C(NCCc1ccc(OC(F)(F)F)cc1)c1ccccc1 (single isomer, unassigned) [40 Isomer 1]
> 60	O=C(c1c[nH]c2ccccc12)C(NCCN1CCCCC1=O)c1ccccc1 (single isomer, unassigned) [41 Isomer 1]
> 60	O=C(c1c[nH]c2ccccc12)C(NCCN1CCCCC1=O)c1ccccc1 (single isomer, unassigned) [41 Isomer 2]
> 60	Cc1ccc2c(C(=O)C(NCCc3ccc(F)cc3)c3ccccc3)c[nH]c2c1 (single isomer, unassigned) [48 Isomer 1]
> 30	CN(C)C(=O)CCc1ccc2c(C(=O)C(NCCc3ccc(F)cc3)c3ccccc3)c[nH]c2c1 (single isomer, unassigned) [49 Isomer 1]
6.93	NS(=O)(=O)c1ccc(CCNC(C(=O)c2c[nH]c3c(C(F)(F)F)cccc23)c2ccccc2)cc1 (single isomer, unassigned) [50 Isomer 1]
> 30	NS(=O)(=O)c1ccc(CCNC(C(=O)c2c[nH]c3c(C(F)(F)F)cccc23)c2ccccc2)cc1 (single isomer, unassigned) [50 Isomer 2]
> 30	COc1ccc2c(C(=O)C(NCCc3ccc(S(N)(=O)=O)cc3)c3ccccc3)c[nH]c2c1 (single isomer, unassigned) [51 Isomer 1]
15.2	O=C(c1c[nH]c2ccccc12)C(NCCc1ccc(Cl)nc1)c1ccccc1 (single isomer, unassigned) [52 Isomer 1]
2.83	O=C(c1c[nH]c2ccccc12)C(NCCc1ccc(Cl)nc1)c1ccccc1 (single isomer, unassigned) [52 Isomer 2]
> 30	CCNc1ccc(CCNC(C(=O)c2c[nH]c3ccccc23)c2ccccc2)cn1 (single isomer, unassigned) [53 Isomer 1]
> 30	COCCNc1ccc(CCNC(C(=O)c2c[nH]c3ccccc23)c2ccccc2)cn1 (single isomer, unassigned) [54 Isomer 1]
15.7	COCCNc1ccc(CCNC(C(=O)c2c[nH]c3ccccc23)c2ccccc2)cn1 (single isomer, unassigned) [54 Isomer 2]
7.83	NS(=O)(=O)c1ccc(CCNC(C(=O)c2c[nH]c3c(Cl)c(Cl)ccc23)c2ccccc2)cc1 (single isomer, unassigned) [55 Isomer 1]
> 30	NS(=O)(=O)c1ccc(CCNC(C(=O)c2c[nH]c3c(Cl)c(Cl)ccc23)c2ccccc2)cc1 (single isomer, unassigned) [55 Isomer 2]

SMILES	IC50 [µM]
CC(NCCc1ccc(Cl)cc1)C(=O)c1c[nH]c2ccccc12 (single isomer, unassigned) [23 Isomer 1]	> 60
CC(NCCc1ccc(Cl)cc1)C(=O)c1c[nH]c2ccccc12 (single isomer, unassigned) [23 Isomer 2]	> 60
CC(Cc1ccc(Cl)cc1)NC(C(=O)c1c[nH]c2ccccc12)c1ccccc1 (single isomer, unassigned) [27 Isomer 2]	> 60
CC(Cc1ccc(Cl)cc1)NC(C(=O)c1c[nH]c2ccccc12)c1ccccc1 (single isomer, unassigned) [27 Isomer 3]	> 60
CC(Cc1ccc(Cl)cc1)NC(C(=O)c1c[nH]c2ccccc12)c1ccccc1 (single isomer, unassigned) [27 Isomer 4]	> 60
